The source made the active and inactive calls.
Legend:
[1] = test system: HT-1080; assay: cytotoxicity in HT1080 fibrosarcoma cells, cell-based, fluorescence readout (AID 620); type: functional; conditions: Homo sapiens
[2] = test system: HEK293; assay: cells; type: functional, cell-based; conditions: Homo sapiens
[3] = HEp-2 cell cytotoxicity, dose response, cytotoxicity control for RSV inhibitor project, HTS (AID 2410); type: functional; conditions: human respiratory syncytial virus
[4] = biological target: Heat shock protein HSP 90-alpha (Homo sapiens, UniProt P07900); type: functional, organism-based
[5] = Luminescence Cell-Based Dose Retest to Confirm Inhibitors of Cancer Stem Cells. [Related pubchem assays (depositor defined):AID2717, AID2721]; type: functional; conditions: Homo sapiens
[6] = biological target: T1, Nuclear receptor subfamily 0 group B member 1 (Homo sapiens, UniProt P51843); assay: Luminescence-based cell-based high throughput dose response assay for inhibitors of the orphan nuclear receptor subfamily 0, group B, member 1 (DAX1; NR0B1). [Related pubchem assays (depositor defined):AID504766, AID504790]; type: functional
T1 sequence (P51843 whole entry): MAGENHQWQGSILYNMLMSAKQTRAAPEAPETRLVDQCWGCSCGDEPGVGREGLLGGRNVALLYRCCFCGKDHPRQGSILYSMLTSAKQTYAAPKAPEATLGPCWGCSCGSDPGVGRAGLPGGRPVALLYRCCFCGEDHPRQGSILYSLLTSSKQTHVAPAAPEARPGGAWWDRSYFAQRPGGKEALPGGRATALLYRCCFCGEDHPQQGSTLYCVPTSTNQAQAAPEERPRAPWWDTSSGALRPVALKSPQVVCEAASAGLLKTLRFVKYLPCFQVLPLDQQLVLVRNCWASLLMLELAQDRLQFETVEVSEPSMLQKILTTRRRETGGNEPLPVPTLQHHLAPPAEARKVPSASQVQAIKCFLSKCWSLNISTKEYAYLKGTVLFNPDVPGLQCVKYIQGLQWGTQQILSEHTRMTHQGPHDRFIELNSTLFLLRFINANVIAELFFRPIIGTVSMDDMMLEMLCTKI

[7] = biological target: Melanocortin receptor 4 (Homo sapiens, UniProt P32245); type: functional, cell-based;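 also: Cell-based assay with luminescence read-out, confirmatory dose-response testing for agonist activity of biased ligands at MC4R; human U2OS cells with tagged receptor and beta-arrestin; potency of agonists that increase receptor coupling to beta-arrestin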
[8] = biological target: T2, Cysteine protease ATG4B (Homo sapiens, UniProt Q9Y4P1); type: functional;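 also: Fluorescence-based dose-response confirmation assay measuring inhibition of ATG4B activity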
T2 sequence (Q9Y4P1 whole entry): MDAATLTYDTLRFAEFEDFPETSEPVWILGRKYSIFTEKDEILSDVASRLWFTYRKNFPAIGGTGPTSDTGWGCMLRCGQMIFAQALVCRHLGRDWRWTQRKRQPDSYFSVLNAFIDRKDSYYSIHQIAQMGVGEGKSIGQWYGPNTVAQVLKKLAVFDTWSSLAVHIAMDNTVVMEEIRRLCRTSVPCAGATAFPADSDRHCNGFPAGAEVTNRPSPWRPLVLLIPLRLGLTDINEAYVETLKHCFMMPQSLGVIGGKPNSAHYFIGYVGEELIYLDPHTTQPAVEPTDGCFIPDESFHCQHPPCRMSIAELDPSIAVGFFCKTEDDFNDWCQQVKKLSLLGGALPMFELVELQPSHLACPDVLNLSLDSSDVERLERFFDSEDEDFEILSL

[9] = biological target: Phospholipase A2 (Homo sapiens, UniProt P04054); type: functional;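 also: confirmatory dose-response counterscreen on phospholipase A2, testing hits that came from an ultra-high-throughput screen for ATG4B inhibitors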
Phospholipase A2, sequence (P04054 whole entry): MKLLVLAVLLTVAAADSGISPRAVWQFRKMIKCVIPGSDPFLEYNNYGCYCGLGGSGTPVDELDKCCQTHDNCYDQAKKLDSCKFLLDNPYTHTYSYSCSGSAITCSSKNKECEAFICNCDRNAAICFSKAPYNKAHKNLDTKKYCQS

[10] = biological target: Beta-galactosidase (Escherichia coli, UniProt Q8VNN2); assay: Dose response counterscreen for EBI2 assay utilizing the enzyme, b-galactosidase.; type: functional
Beta-galactosidase, sequence (Q8VNN2 whole entry): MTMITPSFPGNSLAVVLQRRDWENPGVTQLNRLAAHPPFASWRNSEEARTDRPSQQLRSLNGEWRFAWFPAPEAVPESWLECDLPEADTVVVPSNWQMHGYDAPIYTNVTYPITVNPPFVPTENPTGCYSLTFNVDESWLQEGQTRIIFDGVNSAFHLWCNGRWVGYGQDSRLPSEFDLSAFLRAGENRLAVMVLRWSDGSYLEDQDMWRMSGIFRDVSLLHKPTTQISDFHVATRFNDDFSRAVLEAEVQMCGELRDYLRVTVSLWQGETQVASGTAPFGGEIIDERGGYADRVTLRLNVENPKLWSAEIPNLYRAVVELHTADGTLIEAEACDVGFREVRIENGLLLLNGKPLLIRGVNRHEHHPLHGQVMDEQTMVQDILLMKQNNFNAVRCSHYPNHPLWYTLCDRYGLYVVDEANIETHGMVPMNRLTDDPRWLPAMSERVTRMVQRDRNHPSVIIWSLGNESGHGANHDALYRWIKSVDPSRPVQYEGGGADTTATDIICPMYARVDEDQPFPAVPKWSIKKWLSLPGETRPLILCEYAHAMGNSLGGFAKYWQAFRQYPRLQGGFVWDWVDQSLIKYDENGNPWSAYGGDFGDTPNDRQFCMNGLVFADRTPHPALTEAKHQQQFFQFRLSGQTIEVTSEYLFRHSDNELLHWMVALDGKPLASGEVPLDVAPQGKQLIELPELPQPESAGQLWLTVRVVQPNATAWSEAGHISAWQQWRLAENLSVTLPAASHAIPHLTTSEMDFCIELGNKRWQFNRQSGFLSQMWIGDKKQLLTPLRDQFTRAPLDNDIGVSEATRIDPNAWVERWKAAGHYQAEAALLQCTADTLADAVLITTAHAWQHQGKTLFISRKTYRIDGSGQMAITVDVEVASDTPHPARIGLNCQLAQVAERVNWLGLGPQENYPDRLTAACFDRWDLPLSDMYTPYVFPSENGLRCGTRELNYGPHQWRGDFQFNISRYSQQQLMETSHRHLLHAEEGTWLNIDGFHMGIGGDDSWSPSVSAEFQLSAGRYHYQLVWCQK

[11] = AlphaScreen signal interference compounds, dose response, artefact control for ARNT-TACC3 interaction inhibitor project, biochemical, luminescence, cherry-pick (AID 651705); type: functional;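 also: AlphaScreen bead proximity signal that flags compounds interfering with the detection technology; potency reflects signal decrease which marks the compound as an assay artifact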
[12] = biological target: Nonstructural protein 1 (Influenza A virus, UniProt Q194T2); type: functional, Influenza A virus (A/California/07/2009(H1N1))
Nonstructural protein 1, sequence (Q194T2 whole entry, the tested form may be a part): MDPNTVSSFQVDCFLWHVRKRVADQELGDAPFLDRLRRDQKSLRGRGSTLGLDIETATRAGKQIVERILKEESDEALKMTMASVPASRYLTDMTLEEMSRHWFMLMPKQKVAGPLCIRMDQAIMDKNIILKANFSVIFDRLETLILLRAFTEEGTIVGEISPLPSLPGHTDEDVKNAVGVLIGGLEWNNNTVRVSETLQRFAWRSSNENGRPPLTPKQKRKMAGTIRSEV

[13] = biological target: T3, Fatty acid synthase (Homo sapiens, UniProt P49327); assay: FAS thioesterase domain inhibitors, dose response, biochemical, kinetic fluorescence intensity (AID 624326); type: functional;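 also: rate of fluorescence rise from hydrolysis of a fluorogenic O-methyl fluorescein ester substrate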
T3 sequence (P49327 whole entry, the tested form may be a part): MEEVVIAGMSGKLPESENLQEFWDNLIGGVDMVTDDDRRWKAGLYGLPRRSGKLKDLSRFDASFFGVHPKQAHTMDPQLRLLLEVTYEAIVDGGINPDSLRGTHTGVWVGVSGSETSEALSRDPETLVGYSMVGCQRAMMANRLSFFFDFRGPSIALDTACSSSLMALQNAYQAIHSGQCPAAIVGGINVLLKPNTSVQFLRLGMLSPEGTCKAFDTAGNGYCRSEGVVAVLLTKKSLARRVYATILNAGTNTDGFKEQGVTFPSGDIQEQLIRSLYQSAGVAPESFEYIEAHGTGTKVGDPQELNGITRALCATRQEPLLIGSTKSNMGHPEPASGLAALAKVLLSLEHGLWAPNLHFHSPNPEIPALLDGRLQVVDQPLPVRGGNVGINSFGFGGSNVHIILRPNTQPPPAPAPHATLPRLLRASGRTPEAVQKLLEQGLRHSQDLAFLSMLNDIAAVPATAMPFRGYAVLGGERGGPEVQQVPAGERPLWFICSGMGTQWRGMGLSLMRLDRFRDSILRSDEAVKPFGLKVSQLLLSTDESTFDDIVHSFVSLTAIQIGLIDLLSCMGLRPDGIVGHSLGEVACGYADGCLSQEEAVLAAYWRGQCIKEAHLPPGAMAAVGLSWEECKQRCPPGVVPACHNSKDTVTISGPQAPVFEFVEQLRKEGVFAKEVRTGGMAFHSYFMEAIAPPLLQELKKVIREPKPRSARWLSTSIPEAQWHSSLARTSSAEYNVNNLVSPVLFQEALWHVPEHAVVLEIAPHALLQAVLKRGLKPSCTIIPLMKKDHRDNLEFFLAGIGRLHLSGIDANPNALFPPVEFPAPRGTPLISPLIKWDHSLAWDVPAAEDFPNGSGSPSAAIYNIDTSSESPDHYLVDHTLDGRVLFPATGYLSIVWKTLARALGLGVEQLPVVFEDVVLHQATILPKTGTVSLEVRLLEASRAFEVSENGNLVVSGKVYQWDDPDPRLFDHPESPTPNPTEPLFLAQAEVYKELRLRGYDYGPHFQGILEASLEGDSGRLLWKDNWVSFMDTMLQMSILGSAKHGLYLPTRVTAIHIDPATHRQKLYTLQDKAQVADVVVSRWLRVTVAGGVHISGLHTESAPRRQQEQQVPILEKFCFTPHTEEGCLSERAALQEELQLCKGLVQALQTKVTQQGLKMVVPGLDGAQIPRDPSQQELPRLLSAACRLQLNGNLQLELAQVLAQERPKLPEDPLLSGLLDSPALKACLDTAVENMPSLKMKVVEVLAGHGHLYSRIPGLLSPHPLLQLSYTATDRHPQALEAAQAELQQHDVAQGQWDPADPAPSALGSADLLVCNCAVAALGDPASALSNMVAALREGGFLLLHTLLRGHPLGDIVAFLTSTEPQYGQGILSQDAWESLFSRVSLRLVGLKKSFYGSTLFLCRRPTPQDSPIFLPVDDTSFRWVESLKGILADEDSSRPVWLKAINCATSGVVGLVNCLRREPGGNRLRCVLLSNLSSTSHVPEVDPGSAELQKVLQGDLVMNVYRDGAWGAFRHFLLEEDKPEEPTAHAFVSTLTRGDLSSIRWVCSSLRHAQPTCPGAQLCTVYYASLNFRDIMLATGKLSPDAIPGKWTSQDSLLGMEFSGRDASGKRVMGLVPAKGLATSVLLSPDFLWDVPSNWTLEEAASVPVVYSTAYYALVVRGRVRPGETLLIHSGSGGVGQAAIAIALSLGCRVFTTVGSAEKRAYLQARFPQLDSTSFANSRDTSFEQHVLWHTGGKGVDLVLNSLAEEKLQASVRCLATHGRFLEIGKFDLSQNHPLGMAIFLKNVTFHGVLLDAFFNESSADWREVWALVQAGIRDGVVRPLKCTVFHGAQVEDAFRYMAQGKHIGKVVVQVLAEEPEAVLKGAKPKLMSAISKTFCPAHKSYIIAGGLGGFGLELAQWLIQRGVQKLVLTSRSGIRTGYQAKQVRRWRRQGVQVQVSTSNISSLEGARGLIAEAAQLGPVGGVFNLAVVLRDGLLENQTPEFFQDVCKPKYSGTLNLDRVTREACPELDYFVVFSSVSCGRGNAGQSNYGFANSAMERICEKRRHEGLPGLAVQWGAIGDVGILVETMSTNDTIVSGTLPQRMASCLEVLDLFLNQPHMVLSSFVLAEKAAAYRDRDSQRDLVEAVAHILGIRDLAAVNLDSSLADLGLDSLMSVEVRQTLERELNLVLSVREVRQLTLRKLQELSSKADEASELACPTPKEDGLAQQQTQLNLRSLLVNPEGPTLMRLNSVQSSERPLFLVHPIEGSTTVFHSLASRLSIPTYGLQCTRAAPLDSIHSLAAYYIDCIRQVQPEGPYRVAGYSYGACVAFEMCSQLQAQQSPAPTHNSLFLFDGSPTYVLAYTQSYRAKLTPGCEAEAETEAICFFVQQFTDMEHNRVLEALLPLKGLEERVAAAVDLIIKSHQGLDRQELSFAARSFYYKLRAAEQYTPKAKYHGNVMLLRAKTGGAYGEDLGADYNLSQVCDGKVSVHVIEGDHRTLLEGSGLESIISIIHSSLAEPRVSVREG

[14] = biological target: T4, Low molecular weight phosphotyrosine protein phosphatase (Homo sapiens, UniProt P24666); type: functional; conditions: read-out: IC50_Mean;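 also: Dose-response confirmation assay measuring inhibition of LMPTP enzyme activity by fluorescence intensity read-out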
T4 sequence (P24666 whole entry): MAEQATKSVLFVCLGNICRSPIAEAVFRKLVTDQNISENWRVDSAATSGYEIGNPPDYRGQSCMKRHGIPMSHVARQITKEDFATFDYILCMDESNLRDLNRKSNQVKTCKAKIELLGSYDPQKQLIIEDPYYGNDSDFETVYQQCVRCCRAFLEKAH

[15] = biological target: T3, Fatty acid synthase; assay: FAS thioesterase domain inhibitors, dose response, biochemical, endpoint fluorescence intensity, uHTS hits (AID 624327); type: functional;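 also: fluorescence from hydrolysis of an O-methyl fluorescein acyl ester substrate by the enzyme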
[16] = miR-122 activators in hepatoma reporter cells, dose response, cell-based, Huh7 psiCHECK-miR122, Renilla luciferase, cherry-picked (AID 651956); type: functional;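 also: huh7 hepatoma cells stably carrying a psiCHECK-2 miR-122 sensor plasmid; renilla luciferase signal reporting endogenous miR-122 activity after 48 h compound exposure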
[17] = microbe, parasite or virus in culture; type: functional; conditions: Mycobacterium tuberculosis
[18] = biological target: T5, Estrogen receptor beta (Homo sapiens, UniProt Q92731); assay: ERβ–SRC-3 coactivator interaction inhibitors, confirmation, orthogonal assay, biochemical, ELISA, streptavidin-HRP readout (AID 1060)
T5 sequence (Q92731 whole entry): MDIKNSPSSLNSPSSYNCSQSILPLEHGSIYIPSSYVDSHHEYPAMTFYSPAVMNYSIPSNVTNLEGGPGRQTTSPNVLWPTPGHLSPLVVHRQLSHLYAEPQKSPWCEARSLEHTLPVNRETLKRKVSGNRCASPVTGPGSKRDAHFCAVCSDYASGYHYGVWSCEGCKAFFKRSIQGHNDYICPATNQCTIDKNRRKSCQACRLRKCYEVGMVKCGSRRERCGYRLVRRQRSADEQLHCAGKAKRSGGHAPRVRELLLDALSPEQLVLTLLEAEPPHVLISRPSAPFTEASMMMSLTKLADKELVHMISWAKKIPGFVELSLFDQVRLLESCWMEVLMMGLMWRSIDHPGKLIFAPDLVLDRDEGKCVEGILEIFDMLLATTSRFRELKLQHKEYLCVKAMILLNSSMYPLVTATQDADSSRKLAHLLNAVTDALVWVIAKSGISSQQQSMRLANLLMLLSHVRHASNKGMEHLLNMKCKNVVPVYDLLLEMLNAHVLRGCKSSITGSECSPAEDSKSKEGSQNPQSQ

[19] = biological target: T6, Polyadenylate-binding protein 1 (Homo sapiens, UniProt P11940); assay: PABP1 MLLE–PAM2 binding inhibitor potency, dose response, biochemical, fluorescence polarization, FITC-PAM2 peptide (AID 602259); type: functional; conditions: read-out: IC50_Mean
T6 sequence (P11940 whole entry): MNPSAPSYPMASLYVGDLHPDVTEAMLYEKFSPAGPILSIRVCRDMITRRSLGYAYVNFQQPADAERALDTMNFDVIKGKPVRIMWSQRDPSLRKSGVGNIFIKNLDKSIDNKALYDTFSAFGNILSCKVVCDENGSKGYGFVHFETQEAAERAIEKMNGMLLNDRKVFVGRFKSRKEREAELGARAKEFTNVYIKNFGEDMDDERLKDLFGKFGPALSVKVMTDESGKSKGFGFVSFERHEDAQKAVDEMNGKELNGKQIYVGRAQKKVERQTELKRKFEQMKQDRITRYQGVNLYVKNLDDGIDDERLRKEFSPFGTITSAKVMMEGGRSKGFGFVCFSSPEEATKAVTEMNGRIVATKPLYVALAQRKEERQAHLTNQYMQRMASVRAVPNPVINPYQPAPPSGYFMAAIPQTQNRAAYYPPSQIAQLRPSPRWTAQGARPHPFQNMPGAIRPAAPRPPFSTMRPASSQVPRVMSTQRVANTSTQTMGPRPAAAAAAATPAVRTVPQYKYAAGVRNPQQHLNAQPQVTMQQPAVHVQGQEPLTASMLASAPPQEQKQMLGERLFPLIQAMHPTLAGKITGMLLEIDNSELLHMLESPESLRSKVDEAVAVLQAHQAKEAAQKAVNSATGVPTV

[20] = biological target: T5, Estrogen receptor beta
[21] = biological target: T6, Polyadenylate-binding protein 1; assay: PABP1 MLLE–PAM2 interaction inhibitors, dose response, miRNA deadenylation inhibitor project, biochemical, fluorescence polarization, Cy5-PAM2 peptide, secondary (AID 602260); type: functional; conditions: read-out: IC50_Mean
[22] = biological target: T7, fMet-Leu-Phe receptor (Homo sapiens, UniProt P21462); assay: FPR ligands, dose response (AID 519); type: functional
T7 sequence (P21462 whole entry): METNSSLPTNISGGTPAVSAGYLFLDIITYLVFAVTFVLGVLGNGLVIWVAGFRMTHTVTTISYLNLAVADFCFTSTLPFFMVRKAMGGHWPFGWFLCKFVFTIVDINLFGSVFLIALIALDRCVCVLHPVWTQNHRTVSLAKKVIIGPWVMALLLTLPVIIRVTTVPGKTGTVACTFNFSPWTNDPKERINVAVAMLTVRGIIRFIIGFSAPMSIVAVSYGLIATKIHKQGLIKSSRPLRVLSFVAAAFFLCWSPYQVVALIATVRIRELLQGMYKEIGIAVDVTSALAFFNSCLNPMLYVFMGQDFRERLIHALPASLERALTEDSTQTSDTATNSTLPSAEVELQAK

[23] = test system: BJ; assay: cytotoxicity toward Ras-transformed BJeLR fibroblasts, dose response, cell-based, alamar blue fluorescence, cherrypicked samples (AID 2631); type: functional; conditions: Homo sapiens;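 also: confirmatory dose-response assay in RAS-dependent BJ fibroblasts engineered with TERT, LT and ST, with cytotoxicity read by fluorescence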
[24] = cytotoxicity toward DRD oncogenic fibroblasts, dose response, cell-based, non-viral oncogenic, luminescence (AID 1934); type: functional; conditions: Homo sapiens
[25] = test system: BJ; assay: cytotoxicity toward BJ-TERT fibroblasts, dose response, cell-based, RAS-independent, luminescence (AID 1933); type: functional; conditions: Homo sapiens
[26] = test system: BJ; assay: cells; type: functional, cell-based; conditions: Homo sapiens
[27] = test system: INS1; assay: beta cell apoptosis inhibitors, cytokine rescue, dose response, luminescence, retest (AID 449756); type: functional, cell-based; conditions: Rattus norvegicus;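 also: cell death triggered by IL-1 beta plus TNF-alpha plus IFN-gamma mixture; protective hits raise ATP signal compared with cytokine alone wells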
[28] = test system: BJ; assay: cytotoxicity toward BJ-TERT-LT-ST fibroblasts, dose response, cell-based, RAS-independent, luminescence (AID 1935); type: functional; conditions: Homo sapiens;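 also: BJ fibroblasts immortalized with TERT plus LT and ST oncogenes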
[29] = cells; type: functional
[30] = cytotoxicity toward NIH3T3 fibroblasts, dose response, counter-screen, cell-based, ATP luminescence, mouse fibroblasts (AID 2010); type: functional;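 also: cells exposed to compound for about 90 hours before reading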
[31] = inhibitors of intracellular T. cruzi replication, confirmation, NIH3T3 host cells, beta-gal luminescence (AID 2044); type: functional, cell-based;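 also: intracellular parasites grown in NIH/3T3 mouse fibroblasts as host cells; luminescent beta-galactosidase reporter signal from transgenic T. cruzi replicating inside host cells; inhibitors lower the luminescence signal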
[32] = HEK293T cytotoxicity, dose response, cytotoxicity control for miR-122 modulator project, cell-based, inhibitor set, cherry-pick, set 2 (AID 720697); type: functional

CC(C)(C)c1ccc(OCC(O)CSc2nc[nH]n2)cc1 (configuration not stated)
EC50 [1]: > 50 µM (not active)

COc1cc(N=Nc2ccc3ccccc3c2)ccc1O
IC50 [2]: > 67.6 µM (inactive)
CC50 [3]: 23.3 µM (active)
AC50 [4]: 10.7 µM (active)
AC50 [5]: 2.65 µM (active)
IC50 [6]: > 67.6 µM (inactive)

COc1ccc(C(NC(=O)C2CCN(CCOc3ccc(Cl)cc3Cl)CC2)c2cccs2)cc1 (configuration not stated)
EC50 [7]: > 89.2 µM (inactive)

Cc1cc(C(=O)N2CCCC(C(=O)c3ccc(Oc4ccccc4)cc3)C2)[nH]n1 (configuration not stated)
IC50 [8]: 28.3 µM (inactive)
IC50 [9]: 11.9 µM (active)

O=C(/C=C/c1ccccc1)N1CCC(Cc2ccccc2)CC1
IC50 [10]: > 80 µM (inactive)

O=C(CSc1nnc(-c2cccnc2)o1)Nc1nccs1
AC50 [11]: 129 µM (active)
IC50 [12]: 10.9 µM (active)

O=S(=O)(c1ccccc1)c1nnn2c1nc(NC1CCN(Cc3ccccc3)CC1)c1ccccc12
IC50 [13]: 0.793 µM (active)
IC50 [14]: 11.5 µM (active)
IC50 [15]: 1.03 µM (active)

CNC(=O)C[C@@H]1CC[C@@H]2[C@H](COc3ccc(NC(=O)Nc4cccc(C)c4)cc3C(=O)N2C)O1
AC50 [16]: 24.9 µM (active)

Cc1cc(C)nc(NC(=O)CSc2nn(-c3ccccc3)c(=S)s2)n1
IC50 [2]: > 67.5 µM (inactive)
IC50 [6]: > 67.5 µM (inactive)

O=C(O)CC(CC(=O)Nc1ccc(F)c(Cl)c1)c1ccc(Cl)cc1Cl (configuration not stated)
IC50 [2]: > 67.5 µM (inactive)
IC50 [6]: > 67.5 µM (inactive)

O=C(NCc1ccc2c(c1)OCO2)c1c(O)nc2sccn2c1=O
IC50 [14]: 80 µM (inactive)
CC50 [17]: > 40 µM (active)

COc1ccc2c(c1)C(c1ccc(C)o1)=NNC(c1ccccc1)=N2
IC50 [8]: 12.9 µM (active)
IC50 [9]: 8.91 µM (active)

COc1cc2c3c(c1)/C(=C1/SC(NC(C)=O)=NC1=O)C(=O)N3C(C)(C)C=C2C
IC50 [18]: 96.2 µM (not active)
IC50 [19]: > 66 µM (inactive)
IC50 [20]: 3.37 µM (active)
IC50 [21]: > 66 µM (inactive)
Ki [22]: > 66.7 µM (inactive)

COc1ccccc1/C=C1\SC(=O)N(CCC(=O)NCCCn2ccnc2)C1=O
EC50 [23]: > 133 µM (inactive)
EC50 [24]: > 150 µM (not active)
EC50 [25]: > 150 µM (not active)
EC50 [26]: > 150 µM (inconclusive)
AC50 [27]: 5.64 µM (active)
AC50 [5]: 13.5 µM (active)
EC50 [28]: > 150 µM (not active)

Clc1ccc(-c2ccc(CNCc3ccccn3)o2)cc1
IC50 [29]: 3.21 µM (active)
AC50 [11]: 95.9 µM (active)

COc1ccccc1N(C(=O)c1ccncc1)c1nc(-c2ccc([N+](=O)[O-])cc2)cs1
IC50 [10]: > 80 µM (inactive)
CC50 [3]: 29.6 µM (active)
EC50 [30]: > 60 µM (inconclusive)
EC50 [31]: 0.448 µM (active)

COc1ccc2cnn(-c3ccccc3)c(=O)c2c1OC
Ki [22]: > 66.7 µM (inactive)

CC(C)(C)OC(=O)[C@H](Cc1ccccc1)NC(=O)c1ncn2c1c(O)nc1ccc(Br)cc12
IC50 [14]: 5.17 µM (active)

Clc1ccc(OCCn2ccnc2)c(Cl)c1
IC50 [2]: > 67.5 µM (inactive)
IC50 [6]: > 67.5 µM (inactive)

CC1CCN(c2nc(-c3ccccc3)c(C#N)c(=O)[nH]2)CC1
Ki [22]: > 66.7 µM (inactive)

CC(=O)Nc1cccc(C(=O)OCC(=O)Nc2nnc(-c3ccccc3)o2)c1
AC50 [11]: 96.8 µM (active)

Cc1cc(C)c2c(=O)n3c(nc2c1)C(Cc1ccccc1)NC(=O)c1cc2ccccc2cc1-3 (configuration not stated)
IC50 [10]: > 80 µM (inactive)

COc1cccc(/C=N/NC(=O)c2cccs2)c1
IC50 [2]: > 67.5 µM (inactive)
IC50 [6]: > 67.5 µM (inactive)

Cc1ccc(S(=O)(=O)N2CCN(C(=O)/C=C/c3ccccc3)CC2)cc1C
IC50 [10]: > 80 µM (inactive)

O=C(O)/C=C/c1ccccc1Oc1ccc(Cl)cc1Cl
IC50 [8]: 11.5 µM (active)
IC50 [9]: 62.7 µM (inactive)

CCCc1ccc(S(=O)(=O)NCCc2ccncc2)cc1
AC50 [32]: 8.02 µM (active)
AC50 [16]: 34.1 µM (active)

O=C(COC(=O)c1cccc(O)c1)Nc1nnc(-c2ccccc2)o1
AC50 [11]: 74.4 µM (active)
